Experimental data taken from patent US9271978B2 (Zenith Epigenetics Corp., priority 2012, dated 2016).

Key:
[1] = molecular target: T1, second bromodomain of Brd2 (BRD2(2)) (Homo sapiens, UniProt P25440); assay: Inhibition of tetra-acetylated histone H4 binding to Brd2 bromodomain 2 (TR-FRET); set-up: key: Active: Compounds with an IC50 value less than 30 μM were deemed to be active.; Not Active: Compounds with an IC50 value less than 30 μM were deemed to be active; settings: tetra-acetylated histone H4 peptide, active = IC50 <30 μM
T1 construct: made in house; host or cells: E. coli BL21 (DE3)
In short: (§1)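 N-terminally His-tagged bromodomains (200 nM), expressed in E. coli, were incubated with biotinylated tetra-acetylated histone H4 peptide (25-50 nM), Eu-cryptate streptavidin and XL665 anti-His antibody in HEPES pH 7.4 buffer with KF, 0.2% DMSO, 2 h at room temperature. Inhibition read as decreased 665/620 nm TR-FRET; IC50 from dose-response curves.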

[2] = molecular target: T2, Brd4 bromodomain 1 (BRD4(1)) (Homo sapiens, UniProt O60885); assay: Inhibition of tetra-acetylated histone H4 binding to Brd4 bromodomain 1 (TR-FRET); set-up: key: Active: Compounds with an IC50 value less than 30 μM were deemed to be active.; Not Active: Compounds with an IC50 value less than 30 μM were deemed to be active; settings: tetra-acetylated histone H4 peptide, active = IC50 <30 μM
T2 construct: Illustrative results with the first bromodomain of Brd4; made in house; host or cells: E. coli BL21 (DE3)
In short: as §1

[3] = test system: human AML MV-4-11 (CRL-9591) cells; assay: Inhibition of cell proliferation in MV4-11 cells; format: cell-based; set-up: key: Active: Compounds with an IC50 value less than 30 μM were deemed to be active.; Not Active: Compounds with an IC50 value less than 30 μM were deemed to be active; settings: human AML MV-4-11 cells, 72 h; active = IC50 <30 μM
In short: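 Exponentially growing MV-4-11 cells (5×10^4/well) were treated immediately with two-fold dilutions of compound from 30 μM to 0.2 μM, in triplicate, for 72 h at 37° C, 5% CO2. Viability was measured by MTS absorbance at 490 nm after 3–4 h. Proliferation relative to DMSO after blank correction gave IC50.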

[4] = test system: ApoA-I mRNA; assay: Up-regulation of hApoA-1 mRNA transcription in Huh7 cells; format: cell-based, human; set-up: key: Active: Compounds with an EC170 value less than 30 μM were deemed to be active; settings: 48 h treatment, ApoA-I mRNA by real-time PCR, Active = EC170 less than 30 μM
In short: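 Huh7 cells treated with compound for 48 h. ApoA-I mRNA was then quantified in captured mRNA by one-step real-time RT-PCR. Fold induction calculated from Ct values relative to the matching DMSO control; EC170 is the concentration for 170% of control expression.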

[5] = test system: c-myc; assay: Inhibition of c-myc expression in MV4-11 cells (mRNA, real-time PCR); format: cell-based; set-up: key: Active: Compounds with an IC50 value less than 30 μM were deemed to be active.; Not Active: Compounds with an IC50 value less than 30 μM were deemed to be active; settings: Human AML MV4-11 cells, 3 h incubation
In short: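 MV4-11 cells (2.5×10^4) treated with compound or 0.1% DMSO for 3 h at 37 °C. c-myc mRNA measured by RT real-time PCR duplexed with cyclophilin. IC50 from dose–response curve.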

[6] = test system: hIL-6 mRNA; assay: Inhibition of hIL-6 mRNA transcription in U937 cells; format: cell-based, human; set-up: key: Active: Compounds with an IC50 value less than 30 μM were deemed to be active.; Not Active: Compounds with an IC50 value less than 30 μM were deemed to be active; settings: LPS stimulation, active = IC50 <30 μM
In short: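 U937 cells differentiated 3 days with 60 ng/mL PMA, pretreated 1 h with compound, then stimulated with 1 ug/mL E. coli LPS for 3 h at 37° C. hIL-6 mRNA quantified by one-step qRT-PCR, Ct normalized to internal control, expressed as fold induction relative to control.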

T1 sequence (P25440 344-453 limits assumed): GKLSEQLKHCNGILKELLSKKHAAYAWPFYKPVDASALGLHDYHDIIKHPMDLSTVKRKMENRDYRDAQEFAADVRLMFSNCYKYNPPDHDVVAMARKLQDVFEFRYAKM

SMILES	FRET activity (IC50 <30 μM) BRD2(2) [1]	FRET activity (IC50 <30 μM) BRD4(1) [2]	Cell Proliferation activity (IC50 <30 μM) [3]	ApoA-1 activity (EC170 <30 μM) [4]	c-myc activity (IC50 <30 μM) [5]	IL-6 activity (IC50 <30 μM) [6]
Cc1noc(C)c1-c1ccc(=O)n(Cc2ccc(OC(F)(F)F)cc2)c1 [Example 5, 5-(3,5-Dimethylisoxazol-4-yl)-1-(4-(trifluoromethoxy)benzyl)pyridin-2(1H)-one]	Active	Active	Active	Active	Active	Active
Cc1noc(C)c1-c1ccc(=O)n(Cc2ccc(C(N)=O)cc2)c1 [Example 13, 4-((5-(3,5-Dimethylisoxazol-4-yl)-2-oxopyridin-1(2H)-yl)methyl)benzamide]	Active	Active	Not Active	Active	Not Active	Active
Cc1noc(C)c1-c1ccc(=O)n(Cc2ccccc2)n1 [Example 14, 2-Benzyl-6-(3,5-dimethylisoxazol-4-yl)pyridazin-3(2H)-one]	Active	Active	Active	Active	Not Active	Active
COc1cc(-c2ccc(=O)n(Cc3cccc(NC(C)=O)c3)n2)cc(OC)c1OC [Example 17, N-(3-((6-Oxo-3-(3,4,5-trimethoxyphenyl)pyridazin-1(6H)-yl)methyl)phenyl)acetamide]	Active	Active	Not Active	Active	Active	Active
Cc1noc(C)c1-c1ccc(=O)n(C(C)c2ccccc2)n1 (stereo not drawn) [Example 19, 6-(3,5-Dimethylisoxazol-4-yl)-2-(1-phenylethyl)pyridazin-3(2H)-one]	Active	Active	Active	Active	Active	Active
CCC(c1ccccc1)n1cc(-c2c(C)noc2C)ccc1=O (stereo not drawn) [Example 43, 5-(3,5-Dimethylisoxazol-4-yl)-1-(1-phenylpropyl)pyridin-2(1H)-one]	Active	Active	Active	Active	Active	Active
Cc1noc(C)c1-c1cc(N)c(=O)n(Cc2ccc(C#N)cc2)c1 [Example 216, 4-((3-amino-5-(3,5-dimethylisoxazol-4-yl)-2-oxopyridin-1(2H)-yl)methyl)benzonitrile]	–	Active	Active	Active	Active	Active
COc1ccc(Cn2cc(-c3c(C)noc3C)cc(N)c2=O)cc1 [Example 220, 3-amino-5-(3,5-dimethylisoxazol-4-yl)-1-(4-methoxybenzyl)pyridin-2(1H)-one]	–	Active	Active	Active	Active	Active
Cc1noc(C)c1-c1cc(N)c(=O)n(Cc2ccc(Cl)s2)c1 [Example 222, 3-amino-1-((5-chlorothiophen-2-yl)methyl)-5-(3,5-dimethylisoxazol-4-yl)pyridin-2(1H)-one]	–	Active	Active	Active	Active	Active
Cc1noc(C)c1-c1cc(Nc2cncc(F)c2)c(=O)n(Cc2ccccc2)c1 [Example 223, 1-benzyl-5-(3,5-dimethylisoxazol-4-yl)-3-((5-fluoropyridin-3-yl)amino)pyridin-2(1H)-one]	–	Active	Active	Active	Active	Active
Cc1noc(C)c1-c1cc(N)c(=O)n(Cc2ccc(OC(F)(F)F)cc2)c1 [Example 226, 3-amino-5-(3,5-dimethylisoxazol-4-yl)-1-(4-(trifluoromethoxy)benzyl)pyridin-2(1H)-one]	–	Active	Active	Active	Active	Active
Cc1noc(C)c1-c1cc(N)c(=O)n(Cc2ccccc2Cl)c1 [Example 227, 3-amino-1-(2-chlorobenzyl)-5-(3,5-dimethylisoxazol-4-yl)pyridin-2(1H)-one]	–	Active	Active	Active	Active	Active
Cc1noc(C)c1-c1cc(N)c(=O)n(Cc2ccc(C(F)(F)F)cc2)c1 [Example 228, 3-amino-5-(3,5-dimethylisoxazol-4-yl)-1-(4-(trifluoromethyl)benzyl)pyridin-2(1H)-one]	–	Active	Active	Active	Active	Active
Cc1noc(C)c1-c1cc(C(N)=O)c(=O)n(Cc2ccccc2)c1 [Example 230, 1-Benzyl-5-(3,5-dimethylisoxazol-4-yl)-2-oxo-1,2-dihydropyridine-3-carboxamide]	–	Active	Active	Active	Active	Active
Cc1noc(C)c1-c1cc(N)c(=O)n(Cc2ccc(Cl)cc2)n1 [Example 233, 4-amino-2-(4-chlorobenzyl)-6-(3,5-dimethylisoxazol-4-yl)pyridazin-3(2H)-one]	–	Active	Active	Active	Active	Active
